Results: publication PMC9966268, “Genotoxicity of Novel Pyrazolo[4,3-e]tetrazolo[1,5-b][1,2,4]triazine Sulfonamides in Normal and Cancer Cells In Vitro” (International Journal of Molecular Sciences, 2023)

Assays:
PC-3 [1] = test system: PC-3; parameters: method as in PMID 35682571; conditions: PC-3, 72 h incubation, MTT assay, mean; read-out: IC50 Value ± SD; cited from earlier work
BxPC-3 [2] = test system: BxPC-3; parameters: method as in PMID 35682571; conditions: BxPC-3, 72 h incubation, MTT assay, mean; read-out: IC50 Value ± SD; cited from earlier work
PC-3 [3] = test: Neutral comet assay; assay type: cell-based, human; conditions: 24 h
Method: (§1) The majority of the neutral comet assay steps were performed analogously to the alkaline version except for the electrophoresis step. In contrast to the alkaline comet assay, electrophoresis was performed in a buffer comprising 100 mM TRIS and 300 mM sodium acetate with the pH of the solution adjusted to 9.0 by glacial acetic acid, as described previously by Bukowski et al.. Electrophoresis was run at 12 V, 50 mA for 60 min. Cells were washed with distilled water twice, stained with DAPI, and analyzed as described for the alkaline comet assay.
(§2) […] This parameter provides a very clear picture of what the actual appearance of the comets was like. […] The data were presented with an interquartile range and minimal and maximal values using Graphpad Prism 7. Statistical analysis of comet assay results was performed using Statistica software. The Kruskal–Wallis test was used to show a statistically significant difference between groups. Multiple comparisons using mean ranks for all groups module of Statistica software were used. A p-value less than 0.05 was considered statistically significant. In all groups, N > 200.

BxPC-3 [4] = test: Neutral comet assay; assay type: cell-based, human; conditions: 24 h
Method: as §1
CASP: Comet Assay Software Project Lab (http://casplab.com (accessed on 1 January 2023)) was used to establish the median value of DNA (%) in comet tails. This parameter provides a very clear picture of what the actual appearance of the comets was like. […] The data were presented with an interquartile range and minimal and maximal values using Graphpad Prism 7. Statistical analysis of comet assay results was performed using Statistica software. The Kruskal–Wallis test was used to show a statistically significant difference between groups. Multiple comparisons using mean ranks for all groups module of Statistica software were used. A p-value less than 0.05 was considered statistically significant. In all groups, N > 200.

WI-38 [5] = test system: WI-38; parameters: method as in PMID 35682571; conditions: WI-38 (head prints WI-28), 72 h incubation, MTT assay, mean; read-out: IC50 Value ± SD; cited from earlier work
WI-38 [6] = test: Alkaline comet assay; assay type: cell-based, human; conditions: WI-38, alkaline; for mean tail DNA % / median tail DNA %: 24 h
Method: (§3) The alkaline version of the comet assay was performed according to Singh et al. (1988), with modifications. BxPC-3 and PC-3 cancer cells and normal human fibroblasts (WI-38) were seeded at a density of 1.2 × 10^5/mL onto 12-well plates. […] The experimental design included negative controls (cells treated with DMSO at 0.4% for 24 h at 37 °C). Cells were left for incubation for another 24 h (37 °C; 5% CO2). After exposure, they were transferred to Eppendorf tubes and centrifuged at 1400 rpm for 10 min at 4 °C. Afterward, the supernatant was removed, and the precipitate was diluted in PBS. The next steps were performed as previously described by Kontek and Nowicka.
(§4) After electrophoresis (conditions: 12 V, 300 mA, 25 min), slides were stained with 1 µg/mL of the intercalating agent 4′,6-diamidino-2-phenylindole (DAPI) and coverslipped. DNA damage was assessed with a fluorescence microscope at 360 nm using CellSens (Olympus) software. A total number of approximately 50 cells per slide was chosen for further analysis.
as §2

PC-3 [7] = test: Alkaline comet assay; assay type: cell-based, human; conditions: PC-3, alkaline, 24 h
Method: as §3, §4, §2

BxPC-3 [8] = test: Alkaline comet assay; assay type: cell-based, human; conditions: BxPC-3, alkaline, 24 h
Method: as §3, §4, §2

PC-3 [9] = test: γH2AX staining; assay type: cell-based, human; conditions: PC-3, IC50 concentration, 24 h, foci per cell
Method: PC-3 cells were seeded at a density of 3 × 10^4/mL onto round coverslips placed on the bottom of 12-well plates. […] After 24 h, cells were washed once with cold PBS and placed in 4% paraformaldehyde (PHA) in PBS for 10 min. at room temperature. After that, PHA was removed, and cells were permeabilized using 0.1% Triton X-100 for 10 min at 20 °C, followed by incubation in a blocking solution (1 mL/well) containing 2.5% BSA, 1.5% goat serum, and 0.1% Triton X-100 in PBS for 10 min at room temperature. The blocking solution was removed, and coverslips containing cells were incubated with anti-γ-H2AX primary antibodies in blocking solution (anti-gamma-H2AX (phosphor-Ser139) (Abcam, Cambridge, UK; 1:100)) for 1 h at room temperature. Cells were transferred into 12-well plates, washed twice in PBS (5 min each), transferred to plates, and incubated with Goat anti-Mouse IgG Cross-adsorbed antibody, Alexa Fluor 488 (Invitrogen; 1:500 in PBS) for 1 h at room temperature. Cells were washed twice in PBS, followed by incubation with DAPI solution (1 µg/mL) for 10 min at room temperature and two washes in PBS and distilled water. Coverslips were removed using tweezers and placed on microscope slides with a drop of Fluoromount-G mounting medium. The slides were placed flat at room temperature for 24 h and then stored at 4 °C. The slides were analyzed with a fluorescence microscope using CellSens (Olympus) software. A total number of approximately 100 cells per slide was chosen for further analysis. The experiment was performed in duplicate. In BxPC-3 cells, inefficient or non-specific staining was observed despite attempts to optimize the assay. Therefore, we discontinued further work on these cells with the assay.
Images for green γ-H2AX (Alexa Fluor 488) and blue nuclear signals (DAPI) were taken using an Olympus camera. ImageJ software “find maxima” and “count” functions were used to determine the number of γ-H2AX foci in each cell. The “preview point selection” option and “prominence” were chosen based on the accuracy of coverage of γ-H2AX foci. Data were analyzed using GraphPad Prism 7.0 software system (GraphPad Prism Software Inc., USA) and Statistica software. The Kruskal–Wallis test was used to show a statistically significant difference between groups. Multiple comparisons using mean ranks for all groups module of Statistica software were used. A p-value less than 0.05 was considered statistically significant (p < 0.05). In all groups, N > 200.

Alamar blue assay = assay type: cell-based; conditions: human
Method: Alamar blue works as a non-toxic and membrane-permeable redox indicator that is often used to assess the metabolic activity of cells. Over the past 50 years, the alamar blue reagent has been used to measure cell viability and cytotoxicity in a variety of cell types. In this study, alamar blue (BioRAD) was used to assess cell viability before the performance of the neutral comet assay. Nunc microtiter, flat-bottomed 96-well plates were seeded at a density of approximately 1 × 10^4 cells per 100 µL medium per well. Following the given incubation period in controlled conditions (37 °C; 5% CO2), cells were exposed to 11 different concentrations of tested compounds in DMSO (range 0.05–3 µM) in a volume of 100 µL medium per well. The final solvent concentration was <0.5% v/v. The experimental design included negative controls and blanks (wells without cells).
Following a 24 h incubation period, 20 µL of alamar blue was added to each well of the experimental plate. Cells were incubated in a humidified atmosphere for 4 h (37 °C; 5% CO2). The absorbance reading was performed at 570 and 600 nm using a spectrophotometer (microplate reader Power Wave XS BioTek Instruments, Inc., USA). The experiments were performed in triplicate.
The percentage difference between treated and control cells was calculated using the formula provided by the producer (BioRad). (1) Percentage difference between treated and control cells=O2×A1 −O1×A2 /O2×P1−O1×P2×100

WI-38 [10] = test: Trypan blue staining; assay type: cell-based, human; conditions: WI-38, 0.5, 1 and 2 × IC50, 24 h, 37 °C
Method: (§5) Trypan blue is a diazo dye that has been used for viability assessment for years. Viable cells with undamaged cellular membranes are resistant to staining and thus allow the discrimination from blue-stained dead cells with disrupted membranes. Cells were seeded at a density of 1.5 × 10^5/mL onto 12-well plates. […] Cells were left for incubation for another 24 h (37 °C; 5% CO2). After exposure, they were transferred to Eppendorf tubes and centrifuged at 1400 rpm for 10 min at 4 °C. Afterward, the supernatant was removed, and the precipitate was diluted in PBS. Cell suspensions were mixed with 0.4% trypan blue solution in a 1:1 ratio. Approximately 300 cells were counted under a light microscope. The experiment was repeated three times. The results were represented as mean viability (%) with SD values.

PC-3 [11] = test: Trypan blue staining; assay type: cell-based, human; conditions: PC-3, 0.5, 1 and 2 × IC50, 24 h, 37 °C
Method: as §5

BxPC-3 [12] = test: Trypan blue staining; assay type: cell-based, human; conditions: BxPC-3, 0.5, 1 and 2 × IC50, 24 h, 37 °C
Method: as §5

[13] = test system: BxPC-3 and PC-3 cancer cell lines; parameters: method as in PMID 35682571; conditions: BxPC-3 and PC-3, 72 h MTT assay; read-out: IC50 (range over cancer cell lines); cited from earlier work
[14] = PC-3, neutral, positive control 20 µM
[15] = BxPC-3, neutral, positive control 20 µM

| Compound | mean tail DNA % (double-strand breaks) (PC-3 [3]; human) [%] | median tail DNA % (double-strand breaks) (PC-3 [3]; human) [%] | mean tail DNA % (double-strand breaks) (BxPC-3 [4]; human) [%] | median tail DNA % (double-strand breaks) (BxPC-3 [4]; human) [%] | mean tail DNA % (WI-38 [6]; IC50 concentration) [%] | median tail DNA % (WI-38 [6]; IC50 concentration) [%] | mean tail DNA % (PC-3 [7]; IC50 concentration) [%] | median tail DNA % (PC-3 [7]; IC50 concentration) [%] | mean tail DNA % (BxPC-3 [8]; IC50 concentration) [%] | median tail DNA % (BxPC-3 [8]; IC50 concentration) [%] | mean number of γH2AX foci (PC-3 [9]) | median number of γH2AX foci (PC-3 [9]) | IC50 (PC-3 [1]) [µM] | IC50 (BxPC-3 [2]) [µM] | IC50 (WI-38 [5]) [µM] | viability at 24 h, 3 µM (Alamar blue assay; PC-3 cells, PC-3, 3 µM) [%] | further results |
| --- | --- | --- | --- | --- | --- | --- | --- | --- | --- | --- | --- | --- | --- | --- | --- | --- | --- |
| bleomycin [reference compound] | – | – | – | – | – | – | – | – | – | – | – | – | – | – | – | – | mean tail DNA % (double-strand breaks) (PC-3 [3]; [14]): 12.9%; median tail DNA % (double-strand breaks) (PC-3 [3]; [14]): 10.4%; mean tail DNA % (double-strand breaks) (BxPC-3 [4]; [15]): 11.15%; median tail DNA % (double-strand breaks) (BxPC-3 [4]; [15]): 9.7%; mean tail DNA % (WI-38 [6]; positive control 20 µM): 32.6%; median tail DNA % (WI-38 [6]; positive control 20 µM): 29.13%; mean tail DNA % (PC-3 [7]; positive control 20 µM): 22.07%; median tail DNA % (PC-3 [7]; positive control 20 µM): 19.31%; mean tail DNA % (BxPC-3 [8]; positive control 20 µM): 48.3%; median tail DNA % (BxPC-3 [8]; positive control 20 µM): 50.8% |
| Cc1nn(-c2ccc(S(=O)(=O)NCCN3CCOCC3)cc2)c2nn3nnnc3nc12 [MM134] | 5.72 | 4.09 | 5.11 | 4.21 | 4.19 | 1.5 | 7.37 | 1.03 | 10.9 | 2.5 | 25.8 | 21 | 0.16 ± 0.02 | 0.32 ± 0.1 | – | 55.8 ± 5.27 | DNA damage compared with negative and positive control (in words) (WI-38 [6]; 0.5 × IC50, IC50, 2 × IC50, 24 h, p < 0.05): statistically significant increase in DNA damage; cell viability (WI-38 [10]): highest reduction in cell viability; cell viability (PC-3 [11]): highest reduction in cell viability; cell viability (BxPC-3 [12]): highest reduction in cell viability |

Further lines, with some results ahead:

| mean tail DNA % (double-strand breaks) (PC-3 [3]; human) [%] | median tail DNA % (double-strand breaks) (PC-3 [3]; human) [%] | mean tail DNA % (double-strand breaks) (BxPC-3 [4]; human) [%] | median tail DNA % (double-strand breaks) (BxPC-3 [4]; human) [%] | mean tail DNA % (WI-38 [6]; IC50 concentration) [%] | median tail DNA % (WI-38 [6]; IC50 concentration) [%] | mean tail DNA % (PC-3 [7]; IC50 concentration) [%] | median tail DNA % (PC-3 [7]; IC50 concentration) [%] | mean tail DNA % (BxPC-3 [8]; IC50 concentration) [%] | median tail DNA % (BxPC-3 [8]; IC50 concentration) [%] | mean number of γH2AX foci (PC-3 [9]) | median number of γH2AX foci (PC-3 [9]) | Compound | IC50 (PC-3 [1]) [µM] | IC50 (BxPC-3 [2]) [µM] | IC50 (WI-38 [5]) [µM] | viability at 24 h, 3 µM (Alamar blue assay; PC-3 cells, PC-3, 3 µM) [%] | further results |
| --- | --- | --- | --- | --- | --- | --- | --- | --- | --- | --- | --- | --- | --- | --- | --- | --- | --- |
| 8 | 4.6 | 5.08 | 4.10 | 0.72 | 0.01 | 12.08 | 1.63 | 14.36 | 8.28 | 14.71 | 11 | Cc1nn(-c2ccc(S(=O)(=O)N3CCOCC3)cc2)c2nn3nnnc3nc12 [MM136] | 0.13 ± 0.01 | 0.25 ± 0.08 | 0.48 ± 0.09 | – | – |
| 4.45 | 2.82 | – | – | 1.26 | 0.09 | 11.05 | 2.32 | 12.07 | 3.28 | 17.52 | 15 | Cc1nn(-c2ccc(S(=O)(=O)N3CCN(C)CC3)cc2)c2nn3nnnc3nc12 [MM137] | 0.11 ± 0.007 | 0.16 ± 0.04 | 0.27 ± 0.04 | – | – |
| 6.07 | 5 | 4.86 | 3.72 | 2.97 | 0.085 | 14.22 | 3.35 | 10.85 | 4.74 | 15.37 | 12 | Cc1nn(-c2ccc(S(=O)(=O)N3CCCCC3)cc2)c2nn3nnnc3nc12 [MM139] | 0.17 ± 0.003 | 0.33 ± 0.14 | 0.54 | 88.4 ± 1.72 | viability at 24 h, 3 µM (Alamar blue assay; BxPC-3 cells, BxPC-3, 3 µM): 75.3 ± 0.99%; IC50 [13]: 0.17 to 0.33 µM |
